In experiment [1] the test system is 340 wild-type protein kinases. The experiment in a line: PanQinase wild-type kinase panel, selectivity score. It is filed as biochemical. The following applies: 1 μM; share of kinases with residual activity <50%; 340 wild-type protein kinase assays. How it is done:
Screening procedures were performed in accordance with the company's on-line protocol [accessed on-line Mar.
The selectivity score for a particular compound at a particular concentration was calculated by using the following formula: Selectivity Score=(count of data points <50%)/(total number of data points).

The target in experiment [2] is T1, CXCR4 (Homo sapiens, UniProt P61073). As to the kind of experiment: Intracellular CXCL-12-induced calcium mobilization assay (FLIPR), U87.CXCR4 cells. It is filed as cell-based. Details: expressed in transfected cells; host or cells: U87 (U87.CXCR4). The following applies: CXCL-12 25-50 ng/ml, read-out: IC50 CXCL-12 Ca2+ flux U87.CXCR4+. How it is done:
Intracellular calcium mobilization induced by chemokines or chemokine-derived peptides were evaluated using a calcium responsive fluorescent probe and a FLIPR system. The CXCR-4 transfected U87 cell line (U87.CXCR4) cells were seeded in gelatine-coated black-wall 96-well plates at 20,000 cells per well and incubated for 12 hours. Cells were then loaded with the fluorescent calcium probe Fluo-2 acetoxymethyl at 4 μM final concentration in assay buffer (Hanks' balanced salt solution with 20 mM HEPES buffer and 0.2% bovine serum albumin, pH 7.4) for 45 min at 37° C. The intracellular calcium mobilization induced by the CXCL-12 (25-50 ng/ml) was then measured at 37° C. by monitoring the fluorescence as a function of time in all the wells simultaneously using a fluorometric imaging plate reader (FLIPR Tetra, Molecular Devices).

For another experiment, the target named is BTK (Homo sapiens, UniProt Q06187). As to the kind of experiment: BTK Kinase Enzyme System with ADP-Glo Kinase Assay. Details: Recombinant full-length human BTK was expressed by baculovirus in Sf9 insect cells; His (N); purchased Promega V9071; host or cells: Sf9 insect cells (baculovirus). The following applies: 50 μM ATP. It is filed as biochemical. On the procedure:
Inhibition of BTK activity was evaluated using the BTK Kinase Enzyme System in combination with the ADP-Glo™ Kinase Assay Kit (V9071, Promega), according to manufacturer's instructions. Luminescence was detected on a PerkinElmer EnVision Multimode Plate Reader.
Recombinant full-length human BTK was expressed by baculovirus in Sf9 insect cells using an N-terminal His tag, MW ˜78 kDa. Substrate solution contained Poly (4:1 Glu, Tyr) Peptide Substrate. BTK Kinase Buffer consisted of: 40 mM Tris, pH 7.5; 20 mM MgCl2; 0.1 mg/ml BSA; 2 mM MnCl2; 50 μM DTT. ADP-Glo™ Reagents were thawed at ambient temperature; components of BTK Enzyme System, ADP and ATP were thawed on ice. Final assay conditions used 3 ng BTK, 50 μM ATP, and 0.2 mg/mL substrate. Compounds were tested at 11 dose points in duplicates, in 3-fold dilution with top concentration at 10 μM.
Assay performance was evaluated according to the reference compound Staurosporine, which was within 3-5 fold of published results and between different tests, with a Z′ value larger than 0.5, where applicable.

Experiment [3] addresses T1, CXCR4. As to the kind of experiment: Chemokine (CXCL12-AF647) binding inhibition assay, Jurkat cells expressing CXCR4. The following applies: CXCL12-AF647 25 ng/ml, read-out: IC50 CXCL-12 binding Jurkat. How it is done: Jurkat cells expressing CXCR4 were washed once with assay buffer (Hanks' balanced salt solution with 20 mM HEPES buffer and 0.2% bovine serum albumin, pH 7.4) and then incubated for 15 min at room temperature with the test compounds diluted in assay buffer at dose-dependent concentrations. Subsequently, CXCL12-AF647 (25 ng/ml) was added to the compound-incubated cells. The cells were incubated for 30 min at room temperature. Thereafter, the cells were washed twice in assay buffer, fixed in 1% paraformaldehyde in PBS, and analyzed on the FL4 channel of a FACSCalibur flow cytometer equipped with a 635-nm red diode laser (Becton Dickinson, San Jose, CA, USA).
The percentages of inhibition of CXCL12-AF647 binding were calculated according to the formula: [1−((MFI−MFINC)/(MFIPC−MFINC))]×100 where MFI is the mean fluorescence intensity of the cells incubated with CXCL 12-AF647 in the presence of the inhibitor, MFINC is the mean fluorescence intensity measured in the negative control (i.e., autofluorescence of unlabeled cells), and MFIPC is the mean fluorescence intensity of the positive control (i.e., cells exposed to CXCL12-AF647 alone).

Experiment [4] has as its target T2, BTK (Bruton tyrosine kinase) (Homo sapiens, UniProt Q06187).
T2 construct: GST or His (the text leaves open which); purchased Reaction Biology Europe GmbH Lot 012,11; host or cells: Sf9 insect cells or E. coli (not resolved)
As to the kind of experiment: BTK screening assay (33PanQinase Activity Assay, radiometric). The conditions noted are these: Inhibition of BTK, radiometric 33PanQinase Activity Assay, 3 μM ATP, 10 concentrations in singlicate, top 10 μM; read-out: 33PanQinase ® Radiometric IC50. It is filed as biochemical.

For a further experiment, the system named is Ramos cell line. The experiment in a line: Ramos cell line viability assay (CellTiter-Glo, 72 hr). It is filed as cell-based. The following applies: Homo sapiens. On the procedure:
Inhibition of non-Hodgkin lymphoma B-cell proliferation by compounds of the present invention was evaluated in a Ramos cell line. Ramos is a B lymphocyte cell line that was derived from a patient with Burkitt's Lymphoma.
Cell viability was analyzed with the CellTiter-Glo® Luminescent Cell Viability Assay Kit (G7572, Promega), according to the manufacturer's instruction. Cells were seeded into a 96-well/384-well plate and then incubated in 5% CO2 at 37° C. overnight. Compounds were added to the cells, with 9-10 dose points in duplicates in 3-fold dilution from a top concentration of 30 μM, and incubated in 5% CO2 at 37° C. for 72 hr. The 96-well/384-well plate was equilibrated at room temperature for 30 min. 50 μl/25 μl of CellTiter-Glo® Reagent was added to each well and mixed for 2 min on an orbital shaker to induce cell lysis. The 96-well/384-well plate was incubated at room temperature for 10 min to stabilize luminescent signal. Luminescence was detected on a PerkinElmer EnVision Multimode Plate Reader as relative luminescence units (RLU).
For orientation: In ATP-based viability assays light output follows the ATP content of the culture.

The test system of the next experiment is U-87 MG. The experiment in a line: Glioblastoma multiforme cell proliferation assay (CellTiter Glo), U-87 MG. The following applies: Homo sapiens, Table 6B. It is filed as cell-based. On the procedure: (§1) Inhibition of glioblastoma multiforme cell proliferation by compounds of the present invention was evaluated in U-87 MG (ATCC; Cat. No. HTB-14; Lot. No. 5018014) and T98G (ATCC; Cat. No. CRL-1690; Lot. No. 58267513) cell lines. These are adherent cell lines isolated from glioblastoma multiforme/malignant glioma, which express both CXCR4 and BTK (see Zhou et al. 2002 and Yue et al. 2017).
(§2) Cell viability was analyzed with the CellTiter Glo Cell assay kit ([…], Cat. No. G7573, Lot. No. 0000474103), according to the manufacturer's instruction.
(§3) U-87 MG and T98G cells were seeded onto 384-well opaque-walled clear bottom plates (Corning, Cat. No. 3765, Lot. No. 34319047) in EMEM (Invitrogen, Cat. No. 11095-080; Lot. No. 2276656) supplemented with 10% FBS (Invitrogen, Cat. No. 10099-141C, Lot. No. 2145169CP), at a seeding density of 1000 or 1200 cells per well, respectively, and then incubated in 5% CO2 at 37° C. overnight.
(§4) Compounds were prepared as stock solutions of 30 mM in DMSO (Sigma, Cat. No. 276855-1L. Lot. No. SHBL5610). Compounds were added to the cells, with 10 dose points in duplicates, in 3-fold dilution from a top concentration of 30 μM (final DMSO concentration […]), and incubated in 5% CO2 at 37° C. for 96 hr.
(§5) The 384-well plates were equilibrated at room temperature for approximately 30 min. 25 μl of CellTiter-Glo® Reagent was added to each well and mixed for 10 min on an orbital shaker to induce cell lysis. The 384-well plates were incubated at room temperature for 10 min to stabilize luminescent signal. Luminescence was detected on a PerkinElmer EnVision Multimode Plate Reader (measurement time 0.1s) as relative luminescence units (RLU).

In another experiment the test system is T98G. As to the kind of experiment: Glioblastoma multiforme cell proliferation assay (CellTiter Glo), T98G. It is filed as cell-based. The conditions noted are these: Homo sapiens, Table 6B. How it is done:
as §1, §2, §3, §4, §5

The next experiment deals with GBM-U251MG. As to the kind of experiment: GBM cell proliferation, U251MG (cell-based cancer efficacy assays). The following applies: Homo sapiens, U-251; Table 6B.
The mark [5] stands for this setting: class, read-out: Ramos viability IC50.

The structures appear in SMILES notation. Read-outs that look alike come from different tables or passages of the source.

T2 sequence (Q06187 whole entry): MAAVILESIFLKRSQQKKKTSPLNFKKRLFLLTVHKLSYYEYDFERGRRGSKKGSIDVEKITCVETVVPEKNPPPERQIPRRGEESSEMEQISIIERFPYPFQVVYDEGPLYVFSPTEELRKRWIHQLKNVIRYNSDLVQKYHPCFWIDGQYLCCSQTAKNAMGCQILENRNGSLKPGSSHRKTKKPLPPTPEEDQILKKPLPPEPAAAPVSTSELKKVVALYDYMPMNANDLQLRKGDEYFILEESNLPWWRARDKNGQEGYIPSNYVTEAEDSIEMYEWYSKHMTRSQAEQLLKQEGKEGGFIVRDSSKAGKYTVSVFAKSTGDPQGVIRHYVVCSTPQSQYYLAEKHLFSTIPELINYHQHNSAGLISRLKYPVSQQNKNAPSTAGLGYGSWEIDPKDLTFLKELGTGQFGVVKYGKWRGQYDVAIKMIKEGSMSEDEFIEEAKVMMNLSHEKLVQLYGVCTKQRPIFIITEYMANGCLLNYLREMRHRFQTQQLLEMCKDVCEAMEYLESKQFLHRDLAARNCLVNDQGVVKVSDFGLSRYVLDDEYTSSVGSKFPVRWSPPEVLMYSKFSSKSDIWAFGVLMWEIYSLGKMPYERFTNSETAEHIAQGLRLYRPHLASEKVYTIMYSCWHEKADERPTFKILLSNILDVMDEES
Sequence of BTK (Q06187 whole entry): as above
T1 sequence (P61073 whole entry): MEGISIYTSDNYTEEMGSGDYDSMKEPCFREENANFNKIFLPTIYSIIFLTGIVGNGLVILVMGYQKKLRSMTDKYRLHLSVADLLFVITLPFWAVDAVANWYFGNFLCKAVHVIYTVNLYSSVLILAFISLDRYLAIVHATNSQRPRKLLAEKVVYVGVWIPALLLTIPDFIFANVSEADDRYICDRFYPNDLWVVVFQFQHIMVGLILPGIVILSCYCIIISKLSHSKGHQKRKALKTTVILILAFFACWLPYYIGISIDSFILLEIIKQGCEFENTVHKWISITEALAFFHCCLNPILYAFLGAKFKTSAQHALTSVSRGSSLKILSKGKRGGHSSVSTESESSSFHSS

With `Cc1cc(-c2ccnc(Nc3cnn(C)c3)n2)ccc1CNC(=O)N1CC(OC(C)C)C1` [BIIB-068, reference compound], the “Selectivity Score” value in experiment [1] came out at 0.009.
On to `Cc1cc(-c2ncnc3[nH]c(C(=O)NCCCCN4[C@@H](c5ncccc5C)CCC[C@H]4c4ncccc4C)cc23)ccc1CNC(=O)c1ccc(C(C)(C)C)cc1` [Compound I-6], for which the IC50 on CXCR4 [2] is over 2.5 µM; on BTK, 0.001 to 0.1 µM; on CXCR4 [3], 0.001 to 0.1 µM; in experiment [4], 0.001 to 0.1 µM; with Ramos cell line (setting [5]), 1.5 to 2 µM; with Ramos cell line (read-out: IC50), 1.55 µM.
On to `Cc1cccnc1[C@H]1CCC[C@@H](c2ncccc2C)N1CCN1CCN(C(=O)c2ccc(-c3cc4c(-c5cccc(NC(=O)c6ccc(C(C)(C)C)cc6)c5C)ncnc4[nH]3)cc2)CC1` [Compound I-7], for which the IC50 on CXCR4 [2] was over 2.5 µM; on BTK, 0.001 to 0.1 µM; at CXCR4 [3] it was 0.1 to 1 µM; in experiment [4] it was 0.001 to 0.1 µM; in the experiment with Ramos cell line (setting [5]), 1.5 to 2 µM; with Ramos cell line (read-out: IC50), 1.62 µM.
For `Cc1cccnc1[C@H]1CCC[C@@H](c2ncccc2C)N1CCNC1CN(C(=O)c2ccc(-c3cc4c(-c5cccc(NC(=O)c6ccc(C(C)(C)C)cc6)c5C)ncnc4[nH]3)cc2)C1` [Compound I-8], the IC50 on CXCR4 [2] is 0.1 to 1 µM; on BTK it was 0.001 to 0.1 µM; on CXCR4 [3], 0.001 to 0.1 µM; in experiment [4] it was 0.001 to 0.1 µM; with Ramos cell line (setting [5]), at least 4 µM; in the experiment with Ramos cell line (read-out: IC50), 11.1 µM.
As for `Cc1cccnc1[C@H]1CCC[C@@H](c2ncccc2C)N1CCNC1CN(C(=O)c2ccc(-c3cc4c(-c5cccc(NC(=O)c6ccccc6)c5C)ncnc4[nH]3)cc2)C1` [Compound I-9], the IC50 is 0.001 to 0.1 µM at CXCR4 [2]; 0.1 to 1 µM at BTK; 0.001 to 0.1 µM on CXCR4 [3]; 0.1 to 1 µM in experiment [4]; 2 to 4 µM in the experiment with Ramos cell line (setting [5]); 3.54 µM in the experiment with Ramos cell line (read-out: IC50).
Consider `Cc1cc(-c2ccnc(Nc3cnn(CCCN4[C@@H](c5ncccc5C)CCC[C@H]4c4ncccc4C)c3)n2)ccc1CNC(=O)N1CC(OC(C)C)C1` [Compound I-12, N-(4-(2-(1-(3-((2S,6R)-2,6-bis(3-methylpyridin-2-yl)piperidin-1-yl)propyl)-1H-pyrazol-4-ylamino)pyrimidin-4-yl)-2-methylbenzyl)-3-isopropoxyazetidine-1-carboxamide], for which the IC50 is 1 to 2.5 µM at CXCR4 [2]; 0.001 to 0.1 µM on BTK; 0.001 to 0.1 µM at CXCR4 [3]; 0.001 to 0.1 µM in experiment [4]; 2 to 4 µM in the experiment on Ramos cell line (setting [5]); 2.78 µM in the experiment with Ramos cell line (read-out: IC50).
On to `Cc1cccnc1[C@@H]1CCC[C@H](c2cn3c(N4CCN(C)CC4)cccc3n2)N1C` [Compound I-19], for which the results for the Emax in the experiment on U-87 MG (read-out: GBM-U87MG Cell Proliferation Emax %), in the experiment on T98G (read-out: GBM-T-98G Cell Proliferation Emax %) and in the experiment on GBM-U251MG were 19%, 16% and 6%, respectively. Further, the IC50 is 6.47 µM in the experiment with U-87 MG (read-out: GBM-U87MG Cell Proliferation IC50), over 30 µM in the experiment with T98G (read-out: GBM-T-98G Cell Proliferation IC50) and 1.67 µM with GBM-U251MG.

(Values after patent US20250326753A1, “DUAL CXCR4-BTK INHIBITORS” (X4 Pharmaceuticals, Inc., priority 2022, published 2025).)
